Columns and labels:
Type in all cases: functional
[1] = test system: CCRF-CEM; assay: Cytotoxicity against human CCRF-CEM cells after 48 hrs by trypan blue dye exclusion assay
[2] = test system: HL-60(TB); assay: Cytotoxicity against human HL-60(TB) cells after 48 hrs by trypan blue dye exclusion assay; conditions: HL-60, 48 h
[3] = test system: K562; assay: Cytotoxicity against human K562 cells after 48 hrs by trypan blue dye exclusion assay; conditions: K562, 48 h
[4] = test system: MOLT-4; assay: Cytotoxicity against human MOLT4 cells after 48 hrs by trypan blue dye exclusion assay; conditions: MOLT-4, 48 h
[5] = test system: RPMI-8226; assay: Cytotoxicity against human RPMI8226 cells after 48 hrs by trypan blue dye exclusion assay; conditions: RPMI-8226, 48 h
[6] = test system: SR; assay: Cytotoxicity against human SR cells after 48 hrs by trypan blue dye exclusion assay
[7] = test system: A549; assay: Cytotoxicity against human A549 cells after 48 hrs by trypan blue dye exclusion assay; conditions: A549, 48 h
[8] = test system: EKVX; assay: Cytotoxicity against human EKVX cells after 48 hrs by trypan blue dye exclusion assay
[9] = test system: HOP-62; assay: Cytotoxicity against human HOP62 cells after 48 hrs by trypan blue dye exclusion assay; conditions: HOP-62, 48 h
[10] = test system: HOP-92; assay: Cytotoxicity against human HOP92 cells after 48 hrs by trypan blue dye exclusion assay; conditions: HOP-92, 48 h
[11] = test system: NCI-H226; assay: Cytotoxicity against human NCI-H226 cells after 48 hrs by trypan blue dye exclusion assay; conditions: NCI-H226, 48 h
[12] = test system: NCI-H23; assay: Cytotoxicity against human NCI-H23 cells after 48 hrs by trypan blue dye exclusion assay; conditions: NCI-H23, 48 h
[13] = test system: NCI-H322M; assay: Cytotoxicity against human NCI-H322M cells after 48 hrs by trypan blue dye exclusion assay
[14] = test system: NCI-H460; assay: Cytotoxicity against human NCI-H460 cells after 48 hrs by trypan blue dye exclusion assay; conditions: NCI-H460, 48 h
[15] = test system: NCI-H522; assay: Cytotoxicity against human NCI-H522 cells after 48 hrs by trypan blue dye exclusion assay; conditions: NCI-H522, 48 h
[16] = test system: COLO 205; assay: Cytotoxicity against human COLO205 cells after 48 hrs by trypan blue dye exclusion assay; conditions: COLO 205, 48 h
[17] = test system: HCC 2998; assay: Cytotoxicity against human HCC2998 cells after 48 hrs by trypan blue dye exclusion assay; conditions: HCC 2998, 48 h
[18] = test system: HCT-116; assay: Cytotoxicity against human HCT116 cells after 48 hrs by trypan blue dye exclusion assay; conditions: HCT-116, 48 h
[19] = test system: HCT-15; assay: Cytotoxicity against human HCT15 cells after 48 hrs by trypan blue dye exclusion assay; conditions: HCT-15, 48 h
[20] = test system: HT-29; assay: Cytotoxicity against human HT-29 cells after 48 hrs by trypan blue dye exclusion assay; conditions: HT-29, 48 h
[21] = test system: KM12; assay: Cytotoxicity against human KM12 cells after 48 hrs by trypan blue dye exclusion assay; conditions: KM12, 48 h
[22] = test system: SW-620; assay: Cytotoxicity against human SW620 cells after 48 hrs by trypan blue dye exclusion assay; conditions: SW-620, 48 h
[23] = test system: SF-268; assay: Cytotoxicity against human SF268 cells after 48 hrs by trypan blue dye exclusion assay; conditions: SF-268, 48 h
[24] = test system: SF-295; assay: Cytotoxicity against human SF295 cells after 48 hrs by trypan blue dye exclusion assay; conditions: SF-295, 48 h
[25] = test system: SF-539; assay: Cytotoxicity against human SF539 cells after 48 hrs by trypan blue dye exclusion assay; conditions: SF-539, 48 h
[26] = test system: SNB-19; assay: Cytotoxicity against human SNB19 cells after 48 hrs by trypan blue dye exclusion assay; conditions: SNB-19, 48 h
[27] = test system: SNB-75; assay: Cytotoxicity against human SNB75 cells after 48 hrs by trypan blue dye exclusion assay; conditions: SNB-75, 48 h
[28] = test system: U-251; assay: Cytotoxicity against human U251 cells after 48 hrs by trypan blue dye exclusion assay; conditions: U-251, 48 h
[29] = test system: LOX IMVI; assay: Cytotoxicity against human LOXIMVI cells after 48 hrs by trypan blue dye exclusion assay
[30] = test system: Malme-3M; assay: Cytotoxicity against human MALME-3M cells after 48 hrs by trypan blue dye exclusion assay
[31] = test system: M14; assay: Cytotoxicity against human M14 cells after 48 hrs by trypan blue dye exclusion assay; conditions: M14, 48 h
[32] = test system: MDA-MB-435; assay: Cytotoxicity against human MDA-MB-435 cells after 48 hrs by trypan blue dye exclusion assay; conditions: MDA-MB-435, 48 h
[33] = test system: SK-MEL-2; assay: Cytotoxicity against human SK-MEL-2 cells after 48 hrs by trypan blue dye exclusion assay; conditions: SK-MEL-2, 48 h
[34] = test system: SK-MEL-28; assay: Cytotoxicity against human SK-MEL-28 cells after 48 hrs by trypan blue dye exclusion assay; conditions: SK-MEL-28, 48 h
[35] = test system: SK-MEL-5; assay: Cytotoxicity against human SK-MEL-5 cells after 48 hrs by trypan blue dye exclusion assay; conditions: SK-MEL-5, 48 h
[36] = test system: UACC-257; assay: Cytotoxicity against human UACC257 cells after 48 hrs by trypan blue dye exclusion assay; conditions: UACC-257, 48 h
[37] = test system: UACC-62; assay: Cytotoxicity against human UACC62 cells after 48 hrs by trypan blue dye exclusion assay; conditions: UACC-62, 48 h
[38] = test system: IGROV-1; assay: Cytotoxicity against human IGROV1 cells after 48 hrs by trypan blue dye exclusion assay; conditions: IGROV-1, 48 h
[39] = test system: OVCAR-3; assay: Cytotoxicity against human OVCAR3 cells after 48 hrs by trypan blue dye exclusion assay; conditions: OVCAR-3, 48 h
[40] = test system: OVCAR-4; assay: Cytotoxicity against human OVCAR4 cells after 48 hrs by trypan blue dye exclusion assay; conditions: OVCAR-4, 48 h
[41] = test system: OVCAR-8; assay: Cytotoxicity against human OVCAR8 cells after 48 hrs by trypan blue dye exclusion assay; conditions: OVCAR-8, 48 h
[42] = test system: NCI/ADR-RES; assay: Cytotoxicity against human NCI/ADR-RES cells after 48 hrs by trypan blue dye exclusion assay
[43] = test system: SK-OV-3; assay: Cytotoxicity against human SKOV3 cells after 48 hrs by trypan blue dye exclusion assay; conditions: SK-OV-3, 48 h
[44] = test system: 786-0; assay: Cytotoxicity against human 786-0 cells after 48 hrs by trypan blue dye exclusion assay; conditions: 786-0, 48 h
[45] = test system: A498; assay: Cytotoxicity against human A498 cells after 48 hrs by trypan blue dye exclusion assay; conditions: A498, 48 h
[46] = test system: ACHN; assay: Cytotoxicity against human ACHN cells after 48 hrs by trypan blue dye exclusion assay
[47] = test system: CAKI-1; assay: Cytotoxicity against human CAKI-1 cells after 48 hrs by trypan blue dye exclusion assay; conditions: CAKI-1, 48 h
[48] = test system: RXF 393; assay: Cytotoxicity against human RXF393 cells after 48 hrs by trypan blue dye exclusion assay; conditions: RXF 393, 48 h
[49] = test system: SN12C; assay: Cytotoxicity against human SN12C cells after 48 hrs by trypan blue dye exclusion assay
[50] = test system: TK-10; assay: Cytotoxicity against human TK10 cells after 48 hrs by trypan blue dye exclusion assay; conditions: TK-10, 48 h
[51] = test system: UO-31; assay: Cytotoxicity against human UO31 cells after 48 hrs by trypan blue dye exclusion assay; conditions: UO-31, 48 h
[52] = test system: PC-3; assay: Cytotoxicity against human PC3 cells after 48 hrs by trypan blue dye exclusion assay; conditions: PC-3, 48 h
[53] = test system: DU-145; assay: Cytotoxicity against human DU145 cells after 48 hrs by trypan blue dye exclusion assay; conditions: DU-145, 48 h
[54] = test system: MCF7; assay: Cytotoxicity against human MCF7 cells after 48 hrs by trypan blue dye exclusion assay; conditions: MCF7, 48 h
[55] = test system: MDA-MB-231; assay: Cytotoxicity against human MDA-MB-231 cells after 48 hrs by trypan blue dye exclusion assay; conditions: MDA-MB-231, 48 h
[56] = Cytotoxicity against human Hs 578T cells after 48 hrs by trypan blue dye exclusion assay
[57] = test system: BT-549; assay: Cytotoxicity against human BT549 cells after 48 hrs by trypan blue dye exclusion assay; conditions: BT-549, 48 h
[58] = test system: T47D; assay: Cytotoxicity against human T47D cells after 48 hrs by trypan blue dye exclusion assay
[59] = test system: MDA-MB-468; assay: Cytotoxicity against human MDA-MB-468 cells after 48 hrs by trypan blue dye exclusion assay; conditions: MDA-MB-468, 48 h

## COc1cc([C@@H]2c3cc4c(cc3[C@H](O)[C@H]3COC(=O)[C@H]23)OCO4)cc(OC)c1OC [PODOFILOX]
[1]
  GI50: 10 nM
[2]
  GI50: 10 nM
[3]
  GI50: 215 nM
[4]
  GI50: 10 nM
[5]
  GI50: 10 nM
[6]
  GI50: 10 nM
[7]
  GI50: 13.8 nM
[8]
  GI50: 10 nM
[9]
  GI50: 21.1 nM
[10]
  GI50: 34.1 nM
[11]
  GI50: 10 nM
[12]
  GI50: 10 nM
[13]
  GI50: 10 nM
[14]
  GI50: 10.6 nM
[15]
  GI50: 10 nM
[16]
  GI50: 10 nM
[17]
  GI50: 12.3 nM
[18]
  GI50: 10 nM
[19]
  GI50: 13.5 nM
[20]
  GI50: 10 nM
[21]
  GI50: 10 nM
[22]
  GI50: 10 nM
[23]
  GI50: 10 nM
[24]
  GI50: 10 nM
[25]
  GI50: 10 nM
[26]
  GI50: 10 nM
[27]
  GI50: 659 nM
[28]
  GI50: 10.7 nM
[29]
  GI50: 10 nM
[30]
  GI50: 47300 nM
[31]
  GI50: 13.1 nM
[32]
  GI50: 10 nM
[33]
  GI50: 14.9 nM
[34]
  GI50: 10 nM
[35]
  GI50: 10 nM
[36]
  GI50: 10 nM
[37]
  GI50: 10 nM
[38]
  GI50: 13.2 nM
[39]
  GI50: 11.3 nM
[40]
  GI50: 17.5 nM
[41]
  GI50: 10 nM
[42]
  GI50: 10 nM
[43]
  GI50: 10 nM
[44]
  GI50: 16.9 nM
[45]
  GI50: 10 nM
[46]
  GI50: 10 nM
[47]
  GI50: 89.7 nM
[48]
  GI50: 10 nM
[49]
  GI50: 17.1 nM
[50]
  GI50: 30.5 nM
[51]
  GI50: 16.6 nM
[52]
  GI50: 10 nM
[53]
  GI50: 10 nM
[54]
  GI50: 10 nM
[55]
  GI50: 10 nM
[56]
  GI50: 10 nM
[57]
  GI50: 10 nM
[58]
  GI50: 84500 nM
[59]
  GI50: 10 nM

— ChEMBL document CHEMBL2010711, “Synthesis and comparative evaluation of 4-oxa- and 4-aza-podophyllotoxins as antiproliferative microtubule destabilizing agents” (Bioorg Med Chem Lett, 2012)
